One experiment addresses T1, HDAC6 human recombinant (Homo sapiens, UniProt Q9UBN7).
T1 construct: purchased Calbiochem 382180
T1 sequence (Q9UBN7 1-1215): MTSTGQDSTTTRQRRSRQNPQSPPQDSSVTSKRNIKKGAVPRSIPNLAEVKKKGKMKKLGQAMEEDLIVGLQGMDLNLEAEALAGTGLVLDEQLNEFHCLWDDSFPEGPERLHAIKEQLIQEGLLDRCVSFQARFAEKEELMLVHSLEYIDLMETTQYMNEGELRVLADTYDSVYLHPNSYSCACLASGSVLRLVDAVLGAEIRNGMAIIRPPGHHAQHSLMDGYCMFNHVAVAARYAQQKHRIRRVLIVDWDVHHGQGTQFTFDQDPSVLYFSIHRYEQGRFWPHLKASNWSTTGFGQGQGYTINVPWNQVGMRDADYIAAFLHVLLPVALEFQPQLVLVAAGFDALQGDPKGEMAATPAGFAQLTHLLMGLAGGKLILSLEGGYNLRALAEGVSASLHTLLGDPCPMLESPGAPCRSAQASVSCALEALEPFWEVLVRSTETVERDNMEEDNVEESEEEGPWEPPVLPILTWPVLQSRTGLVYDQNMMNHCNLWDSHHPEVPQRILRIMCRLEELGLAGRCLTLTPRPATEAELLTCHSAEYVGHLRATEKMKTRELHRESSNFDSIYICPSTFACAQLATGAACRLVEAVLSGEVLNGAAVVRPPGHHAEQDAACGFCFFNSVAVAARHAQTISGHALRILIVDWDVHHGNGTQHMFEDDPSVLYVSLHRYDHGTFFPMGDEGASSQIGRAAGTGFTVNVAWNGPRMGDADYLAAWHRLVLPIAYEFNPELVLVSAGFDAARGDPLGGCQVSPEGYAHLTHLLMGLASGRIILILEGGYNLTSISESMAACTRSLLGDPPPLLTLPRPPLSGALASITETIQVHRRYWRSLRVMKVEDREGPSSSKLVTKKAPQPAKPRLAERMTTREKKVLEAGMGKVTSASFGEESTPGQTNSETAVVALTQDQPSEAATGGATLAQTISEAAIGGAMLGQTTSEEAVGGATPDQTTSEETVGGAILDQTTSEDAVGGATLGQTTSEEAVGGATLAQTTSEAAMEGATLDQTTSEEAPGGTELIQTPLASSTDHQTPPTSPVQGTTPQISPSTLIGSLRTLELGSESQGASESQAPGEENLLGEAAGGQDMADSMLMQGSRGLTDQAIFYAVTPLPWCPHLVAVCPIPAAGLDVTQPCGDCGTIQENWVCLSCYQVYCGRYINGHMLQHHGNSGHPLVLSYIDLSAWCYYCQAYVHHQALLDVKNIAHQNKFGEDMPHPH
The experiment can be described thus: HDAC enzyme activity inhibition (in vitro), HDAC6 assay. It counts as biochemical. The conditions noted are these: samples at 0.1, 1, 10, 100 and 1000 nM; 37° C. 60 minutes; fluorescence Ex 390, Em 460; read-out: HDAC6 IC50. In outline:
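Fluorescence (Ex 390, Em 460) read after a 37° C, 60 min enzyme reaction and a further 30 min developer step at 37° C. Uses recombinant human HDAC6; HDAC1 arm dosed at 100, 1000, 10000 nM.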

The target of another experiment is T2, HDAC1 (Homo sapiens, UniProt Q13547).
T2 construct: purchased Enzolifesciences BML-AK511
The experiment can be described thus: HDAC enzyme activity inhibition (in vitro), HDAC1 Fluorimetric Drug Discovery Assay Kit. It counts as biochemical. The conditions noted are these: samples at 100, 1000 and 10000 nM; 37° C. 60 minutes; fluorescence Ex 390, Em 460; read-out: HDAC1 IC50. In outline:
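Each sample reacted with enzyme for 60 min at 37° C before a 30-min developer step at the same temperature. HDAC1 doses spanned 100 to 10000 nM. Fluorescent signal was read at Ex 390/Em 460.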

17 molecules from patent publication US20230092890A1, “1, 3, 4-Oxadiazole derivative compounds as histone deacetylase 6 inhibitor, and the pharmaceutical composition comprising the same” (Chong Kun Dang Pharmaceutical Corp., priority 2019, published 2023) can be followed below.

T2 sequence (Q13547 whole entry): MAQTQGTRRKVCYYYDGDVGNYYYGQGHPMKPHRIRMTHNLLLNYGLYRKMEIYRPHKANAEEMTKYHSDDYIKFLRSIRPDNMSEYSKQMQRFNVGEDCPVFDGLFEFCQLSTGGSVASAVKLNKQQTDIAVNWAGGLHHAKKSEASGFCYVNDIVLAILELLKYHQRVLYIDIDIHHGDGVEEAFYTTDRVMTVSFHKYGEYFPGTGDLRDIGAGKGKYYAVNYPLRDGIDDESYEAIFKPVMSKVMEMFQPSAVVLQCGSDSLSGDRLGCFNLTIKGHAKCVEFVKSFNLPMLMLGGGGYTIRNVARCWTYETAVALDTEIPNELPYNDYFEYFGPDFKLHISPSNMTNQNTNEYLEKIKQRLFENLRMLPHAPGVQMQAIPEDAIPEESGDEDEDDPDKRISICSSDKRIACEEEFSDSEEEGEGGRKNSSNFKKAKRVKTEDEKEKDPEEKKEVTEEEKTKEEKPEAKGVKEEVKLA

In general, IC50 refers to the concentration at which inhibition is half-maximal. In the case of `CN1CC[C@H](n2c(=O)n(Cc3ccc(-c4nnc(C(F)F)o4)cn3)c3cc(F)c(-c4cccc5[nH]ccc45)cc32)C1` [Compound 270, (S)-1-((5-(5-(difluoromethyl)-1,3,4-oxadiazole-2-yl)pyridine-2-yl)methyl)-6-fluoro-5-(1H-indole-4-yl)-3-(1-methylpyrrolidine-3-yl)-1,3-dihydro-2H-benzo[d]imidazole-2-one], the IC50 is 19 nM at HDAC6 human recombinant and greater than 10000 nM on HDAC1.
In the same order, the values of `O=c1n(Cc2ccc(-c3nnc(C(F)F)o3)cn2)c2cc(Cl)ccc2n1C1CCN(C2COC2)CC1` [Compound 271, 5-chloro-3-((5-(5-(difluoromethyl)-1,3,4-oxadiazole-2-yl)pyridine-2-yl)methyl)-1-(1-(oxetan-3-yl)piperidine-4-yl)-1,3-dihydro-2H-benzo[d]imidazole-2-one] are 27 nM and greater than 10000 nM.
In the same order, the values of `CN1CC[C@@H](n2c(=O)n(Cc3ccc(-c4nnc(C(F)F)o4)cn3)c3cc(F)c(-c4ccncc4)cc32)C1` [Compound 272, (R)-1-((5-(5-(difluoromethyl)-1,3,4-oxadiazole-2-yl)pyridine-2-yl)methyl)-6-fluoro-3-(1-methylpyrrolidine-3-yl)-5-(pyridine-4-yl)-1,3-dihydro-2H-benzo[d]imidazole-2-one] are 29 nM and greater than 10000 nM.
On the same counts, the results for `CN1CC[C@@H](n2c(=O)n(Cc3ccc(-c4nnc(C(F)F)o4)cn3)c3cc(F)c(-c4cccc5[nH]ccc45)cc32)C1` [Compound 273, (R)-1-((5-(5-(difluoromethyl)-1,3,4-oxadiazole-2-yl)pyridine-2-yl)methyl)-6-fluoro-5-(1H-indole-4-yl)-3-(1-methylpyrrolidine-3-yl)-1,3-dihydro-2H-benzo[d]imidazole-2-one] are 14 nM and greater than 10000 nM.
On to `CN1CCC[C@@H](n2c(=O)n(Cc3ccc(-c4nnc(C(F)F)o4)cn3)c3cc(F)c(-c4cccnc4)cc32)C1` [Compound 274, (R)-1-((5-(5-(difluoromethyl)-1,3,4-oxadiazole-2-yl)pyridine-2-yl)methyl)-6-fluoro-3-(1-methylpiperidine-3-yl)-5-(pyridine-3-yl)-1,3-dihydro-2H-benzo[d]imidazole-2-one], for which the IC50 is 12 nM on HDAC6 human recombinant and greater than 10000 nM on HDAC1.
In the same order, the values of `CN1CCC[C@@H](n2c(=O)n(Cc3ccc(-c4nnc(C(F)F)o4)cn3)c3cc(F)c(-c4ccncc4)cc32)C1` [Compound 275, (R)-1-((5-(5-(difluoromethyl)-1,3,4-oxadiazole-2-yl)pyridine-2-yl)methyl)-6-fluoro-3-(1-methylpiperidine-3-yl)-5-(pyridine-4-yl)-1,3-dihydro-2H-benzo[d]imidazole-2-one] are 16 nM and greater than 10000 nM.
With `CN1CCC[C@@H](n2c(=O)n(Cc3ccc(-c4nnc(C(F)F)o4)cn3)c3cc(F)c(-c4cccc5[nH]ccc45)cc32)C1` [Compound 276, (R)-1-((5-(5-(difluoromethyl)-1,3,4-oxadiazole-2-yl)pyridine-2-yl)methyl)-6-fluoro-5-(1H-indole-4-yl)-3-(1-methylpiperidine-3-yl)-1,3-dihydro-2H-benzo[d]imidazole-2-one], the results for the IC50 at HDAC6 human recombinant and on HDAC1 were 15 nM and greater than 10000 nM, respectively.
On the same counts, the results for `O=c1oc2cc(-c3cccnc3)c(F)cc2n1Cc1ccc(-c2nnc(C(F)F)o2)cn1` [Compound 277, 3-((5-(5-(difluoromethyl)-1,3,4-oxadiazole-2-yl)pyridine-2-yl)methyl)-5-fluoro-6-(pyridine-3-yl)benzo[d]oxazole-2(3H)-one] are 21 nM and greater than 10000 nM.
On to `O=c1oc2cc(-c3ccncc3)c(F)cc2n1Cc1ccc(-c2nnc(C(F)F)o2)cn1` [Compound 278, 3-((5-(5-(difluoromethyl)-1,3,4-oxadiazole-2-yl)pyridine-2-yl)methyl)-5-fluoro-6-(pyridine-4-yl)benzo[d]oxazole-2(3H)-one], for which the IC50 at HDAC6 human recombinant is 17 nM; at HDAC1, greater than 10000 nM.
In the same order, the values of `O=c1oc2cc(-c3cccc4[nH]ccc34)c(F)cc2n1Cc1ccc(-c2nnc(C(F)F)o2)cn1` [Compound 279, 3-((5-(5-(difluoromethyl)-1,3,4-oxadiazole-2-yl)pyridine-2-yl)methyl)-5-fluoro-6-(1H-indole-4-yl)benzo[d]oxazole-2(3H)-one] are 15 nM and greater than 10000 nM.
In the same order, the values of `O=c1n(Cc2ccc(-c3nnc(C(F)F)o3)cn2)c2ccc(-c3cccnc3)cc2n1C1CCN(C2COC2)CC1` [Compound 280, 1-((5-(5-(difluoromethyl)-1,3,4-oxadiazole-2-yl)pyridine-2-yl)methyl)-3-(1-(oxetan-3-yl)piperidine-4-yl)-5-(pyridine-3-yl)-1,3-dihydro-2H-benzo[d]imidazole-2-one] are 18 nM and greater than 10000 nM.
On the same counts, the results for `CCN1CCC(n2c(=O)n(Cc3ccc(-c4nnc(C(F)F)o4)cn3)c3ccc(-c4cccnc4)cc32)CC1` [Compound 281, 1-((5-(5-(difluoromethyl)-1,3,4-oxadiazole-2-yl)pyridine-2-yl)methyl)-3-(1-ethylpiperidine-4-yl)-5-(pyridine-3-yl)-1,3-dihydro-2H-benzo[d]imidazole-2-one] are 18 nM and greater than 10000 nM.
For the molecule `O=c1n(Cc2ccc(-c3nnc(C(F)F)o3)cn2)c2ccc(-c3ccncc3)cc2n1C1CCN(C2COC2)CC1` [Compound 282, 1-((5-(5-(difluoromethyl)-1,3,4-oxadiazole-2-yl)pyridine-2-yl)methyl)-3-(1-(oxetan-3-yl)piperidine-4-yl)-5-(pyridine-4-yl)-1,3-dihydro-2H-benzo[d]imidazole-2-one], the IC50 at HDAC6 human recombinant is 16 nM; at HDAC1, greater than 10000 nM.
In the same order, the values of `CCN1CCC(n2c(=O)n(Cc3ccc(-c4nnc(C(F)F)o4)cn3)c3ccc(-c4ccncc4)cc32)CC1` [Compound 283, 1-((5-(5-(difluoromethyl)-1,3,4-oxadiazole-2-yl)pyridine-2-yl)methyl)-3-(1-ethylpiperidine-4-yl)-5-(pyridine-4-yl)-1,3-dihydro-2H-benzo[d]imidazole-2-one] are 23 nM and greater than 10000 nM.
In the same order, the values of `Cn1c(=O)n(Cc2ccc(-c3nnc(C(F)F)o3)cn2)c2cc(F)c(N3CCN(Cc4cccc5[nH]ccc45)CC3)cc21` [Compound 284, 5-(4-((1H-indole-4-yl)methyl)piperazine-1-yl)-1-((5-(5-(difluoromethyl)-1,3,4-oxadiazole-2-yl)pyridine-2-yl)methyl)-6-fluoro-3-methyl-1,3-dihydro-2H-benzo[d]imidazole-2-one] are 59 nM and greater than 10000 nM.
For `Cn1c(=O)n(Cc2ccc(-c3nnc(C(F)F)o3)cn2)c2cc(F)c(N3CCN(Cc4cn[nH]c4)CC3)cc21` [Compound 285, 5-(4-((1H-pyrazole-4-yl)methyl)piperazine-1-yl)-1-((5-(5-(difluoromethyl)-1,3,4-oxadiazole-2-yl)pyridine-2-yl)methyl)-6-fluoro-3-methyl-1,3-dihydro-2H-benzo[d]imidazole-2-one], the IC50 at HDAC6 human recombinant is 33 nM; at HDAC1, greater than 10000 nM.
In the same order, the values of `O=c1n(Cc2ccc(-c3nnc(C(F)F)o3)cn2)c2cc(F)c(-c3cccnc3)cc2n1[C@@H]1CCN(C2COC2)C1` [Compound 286, (R)-1-((5-(5-(difluoromethyl)-1,3,4-oxadiazole-2-yl)pyridine-2-yl)methyl)-6-fluoro-3-(1-(oxetan-3-yl)pyrrolidine-3-yl)-5-(pyridine-3-yl)-1,3-dihydro-2H-benzo[d]imidazole-2-one] are 9 nM and greater than 10000 nM.
